PMC3388095, “Fluorophore Labeled Kinase Detects Ligands That Bind within the MAPK Insert of p38α Kinase” (PLoS ONE, 2012)

Key:
Format in all cases: biochemical
[1] = system: panel of 95 different kinases; experiment: Kinase selectivity profile, 33P-ATP filter-binding assay (whole panel); details: 10 µM; 95 kinases
Protocol: Figure 5 Kinase selectivity profile of 1b. Compound 1b was profiled against a selected panel of 95 different kinases at a concentration of 10 µM employing a radioactive (^33P-ATP) filter-binding assay (National Centre for Protein Kinase Profiling, Dundee). The numbers represent the remaining kinase activity in %. […]

BRSK1 = BRSK1 (Homo sapiens, UniProt Q8TDC3); experiment: Kinase selectivity profile, 33P-ATP filter-binding assay
Protocol: (§1) Figure 5 Kinase selectivity profile of 1b. Compound 1b was profiled against a selected panel of 95 different kinases at a concentration of 10 µM employing a radioactive (^33P-ATP) filter-binding assay (National Centre for Protein Kinase Profiling, Dundee). The numbers represent the remaining kinase activity in %. […] TEXT PRINTED IN THE PICTURE: no label printed: Aurora B: 53; MNK2: 67; MINK1: 69; HER4: 71; MKK1: 75; PKBβ: 75; PHK: 76; PIM2: 76; PIM3: 77; CHK2: 78; PKD1: 79; TBK1: 79; PAK4: 80; Lck: 80; GSK3β: 80; IGF-1R: 81; p38δ MAPK: 81; PIM1: 82; SRPK1: 83; SmMLCK: 83; MAPKAP-K3: 84; EPH A2: 85; MELK: 85; CK2: 85; CK1: 86; CAMK1: 86; PLK1: 87; MST2: 87; IR-HIS: 87; BTK: 87; HIPK1: 87; p38α MAPK: 88; DYRK2: 88; JNK3: 88; PAK5: 88; IKKε: 89; p38β MAPK: 89; NUAK1: 90; PAK2: 90; MNK1: 91; ERK8: 91; GCK: 91; PRAK: 91; MLK1: 92; SGK1: 92; PAK6: 92; TTK: 92; BRSK2: 92; MARK4: 93; CHK1: 93; RIPK2: 94; CDK2-Cyclin A: 94; JNK1: 94; AMPK: 94; VEG-FR: 95; DYRK1A: 95; CAMKKβ: 95; PKCα: 96; S6K1: 96; MSK1: 96; PKCz: 96; YES1: 96; RSK1: 97; IRAK4: 97; DYRK3: 97; IKKβ: 97; ERK2: 98; MLK3: 98; RSK2: 98; LKB1: 98; MAPKAP-K2: 98; ERK1: 99; FGF-R1: 99; SYK: 99; MST4: 99; MARK3: 99; MARK2: 100; PDK1: 100; JNK2: 101; HIPK2: 101; BRSK1: 102; EF2K: 102; PRK2: 103; Aurora A: 104; IRR: 104; CSK: 104; PKA: 104; NEK6: 105; p38γ MAPK: 105; Src: 107; PKBα: 109; ROCK 2: 109; EPH-B3: 112; HIPK3: 115; NEK2α: 119 DOUBTS OF THE COPYIST ABOUT THIS PICTURE: The picture prints no compound label and no measure or unit for the numbers; only the colour scale 'Inhibition weak/strong' is printed. / PKCz: the last letter may be z or ζ / NEK2α: the last letter may be a or α / IKKε: the last letter may be ε or e

PRK2 = PRK2 (Homo sapiens, UniProt Q16513); experiment: as above
Protocol: as §1

RSK1 = RSK1 (Homo sapiens, UniProt Q15418); experiment: as above
Sequence of RSK1 (Q15418 whole entry): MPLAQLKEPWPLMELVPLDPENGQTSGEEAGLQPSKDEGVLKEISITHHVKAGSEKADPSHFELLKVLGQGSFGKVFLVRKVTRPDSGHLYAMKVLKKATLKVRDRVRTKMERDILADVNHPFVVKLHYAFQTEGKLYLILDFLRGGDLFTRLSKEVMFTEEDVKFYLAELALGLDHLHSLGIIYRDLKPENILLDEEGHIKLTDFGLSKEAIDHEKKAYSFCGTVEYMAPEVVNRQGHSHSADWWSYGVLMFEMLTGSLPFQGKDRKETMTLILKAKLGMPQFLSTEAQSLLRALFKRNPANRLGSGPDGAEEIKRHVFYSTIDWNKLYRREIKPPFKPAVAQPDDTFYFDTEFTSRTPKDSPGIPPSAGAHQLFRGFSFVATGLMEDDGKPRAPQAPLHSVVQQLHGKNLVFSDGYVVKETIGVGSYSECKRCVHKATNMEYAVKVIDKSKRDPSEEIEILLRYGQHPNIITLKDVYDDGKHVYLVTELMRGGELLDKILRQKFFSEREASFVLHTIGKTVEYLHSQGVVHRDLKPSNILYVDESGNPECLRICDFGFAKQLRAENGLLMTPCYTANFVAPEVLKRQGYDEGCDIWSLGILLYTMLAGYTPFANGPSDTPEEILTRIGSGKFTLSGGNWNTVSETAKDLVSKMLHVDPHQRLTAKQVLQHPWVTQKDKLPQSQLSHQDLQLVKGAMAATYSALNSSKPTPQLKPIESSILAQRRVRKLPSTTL
Protocol: as §1

MAPKAP-K2 = MAPKAP-K2 (Homo sapiens, UniProt P49137); experiment: as above
Sequence of MAPKAP-K2 (P49137 whole entry): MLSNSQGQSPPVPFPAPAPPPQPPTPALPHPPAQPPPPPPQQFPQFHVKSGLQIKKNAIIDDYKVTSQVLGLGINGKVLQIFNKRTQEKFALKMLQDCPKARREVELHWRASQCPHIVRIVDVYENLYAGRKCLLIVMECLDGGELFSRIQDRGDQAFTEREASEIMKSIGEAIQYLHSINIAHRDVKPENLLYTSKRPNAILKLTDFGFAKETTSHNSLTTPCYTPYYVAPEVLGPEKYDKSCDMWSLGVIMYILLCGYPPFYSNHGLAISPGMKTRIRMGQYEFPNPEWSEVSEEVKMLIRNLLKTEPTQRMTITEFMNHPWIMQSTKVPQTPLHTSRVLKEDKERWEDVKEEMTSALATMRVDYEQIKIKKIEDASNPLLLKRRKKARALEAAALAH
Protocol: as §1

NEK2α = NEK2α (Homo sapiens, UniProt P51955); experiment: as above
Protocol: as §1

p38α MAPK = p38α MAPK (Homo sapiens, UniProt Q16539); experiment: as above
Protocol: as §1

S6K1 = S6K1 (Homo sapiens, UniProt P23443); experiment: as above
Protocol: as §1

MST2 = MST2 (Homo sapiens, UniProt Q13188); experiment: as above
Protocol: as §1

ERK8 = ERK8 (Homo sapiens, UniProt Q8TD08); experiment: as above
Protocol: as §1

HIPK3 = HIPK3 (Homo sapiens, UniProt Q9H422); experiment: as above
Sequence of HIPK3 (Q9H422 whole entry): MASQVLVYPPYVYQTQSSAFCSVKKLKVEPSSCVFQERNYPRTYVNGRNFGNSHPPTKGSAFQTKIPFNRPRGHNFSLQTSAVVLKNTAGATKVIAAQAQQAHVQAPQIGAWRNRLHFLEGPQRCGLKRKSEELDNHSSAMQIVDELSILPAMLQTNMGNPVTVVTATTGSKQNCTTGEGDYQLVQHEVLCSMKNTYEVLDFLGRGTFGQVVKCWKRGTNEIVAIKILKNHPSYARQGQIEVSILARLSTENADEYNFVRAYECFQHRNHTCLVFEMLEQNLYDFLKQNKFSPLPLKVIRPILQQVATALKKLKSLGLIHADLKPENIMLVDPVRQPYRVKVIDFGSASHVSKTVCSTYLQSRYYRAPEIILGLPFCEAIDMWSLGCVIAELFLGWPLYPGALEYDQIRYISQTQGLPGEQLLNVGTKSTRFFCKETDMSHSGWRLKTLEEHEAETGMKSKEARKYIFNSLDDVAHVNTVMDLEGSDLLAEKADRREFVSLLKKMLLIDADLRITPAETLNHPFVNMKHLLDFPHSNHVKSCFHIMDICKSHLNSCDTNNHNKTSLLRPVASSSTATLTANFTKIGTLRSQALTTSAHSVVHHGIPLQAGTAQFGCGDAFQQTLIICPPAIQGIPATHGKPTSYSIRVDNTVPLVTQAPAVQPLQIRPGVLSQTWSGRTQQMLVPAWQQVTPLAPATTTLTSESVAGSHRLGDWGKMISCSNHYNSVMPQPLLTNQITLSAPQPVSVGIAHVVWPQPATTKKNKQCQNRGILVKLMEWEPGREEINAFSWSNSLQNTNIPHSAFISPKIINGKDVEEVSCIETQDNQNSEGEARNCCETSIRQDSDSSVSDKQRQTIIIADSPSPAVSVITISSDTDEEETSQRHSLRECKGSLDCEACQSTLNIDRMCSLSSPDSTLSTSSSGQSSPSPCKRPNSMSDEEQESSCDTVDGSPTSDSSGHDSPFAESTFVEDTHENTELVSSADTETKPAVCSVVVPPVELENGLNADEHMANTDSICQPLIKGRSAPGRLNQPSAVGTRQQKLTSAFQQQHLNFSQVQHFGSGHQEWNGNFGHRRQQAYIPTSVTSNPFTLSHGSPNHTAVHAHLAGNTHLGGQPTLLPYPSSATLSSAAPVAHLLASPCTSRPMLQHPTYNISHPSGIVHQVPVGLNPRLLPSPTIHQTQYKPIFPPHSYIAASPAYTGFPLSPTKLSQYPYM
Protocol: as §1

EF2K = EF2K (Homo sapiens, UniProt O00418); experiment: as above
Protocol: as §1

PAK4 = PAK4 (Homo sapiens, UniProt O96013); experiment: as above
Protocol: as §1

MNK1 = MNK1 (Homo sapiens, UniProt Q9BUB5); experiment: as above
Protocol: as §1

JNK1 = JNK1 (Homo sapiens, UniProt P45983); experiment: as above
Protocol: as §1

MARK3 = MARK3 (Homo sapiens, UniProt P27448); experiment: as above
Sequence of MARK3 (P27448 whole entry): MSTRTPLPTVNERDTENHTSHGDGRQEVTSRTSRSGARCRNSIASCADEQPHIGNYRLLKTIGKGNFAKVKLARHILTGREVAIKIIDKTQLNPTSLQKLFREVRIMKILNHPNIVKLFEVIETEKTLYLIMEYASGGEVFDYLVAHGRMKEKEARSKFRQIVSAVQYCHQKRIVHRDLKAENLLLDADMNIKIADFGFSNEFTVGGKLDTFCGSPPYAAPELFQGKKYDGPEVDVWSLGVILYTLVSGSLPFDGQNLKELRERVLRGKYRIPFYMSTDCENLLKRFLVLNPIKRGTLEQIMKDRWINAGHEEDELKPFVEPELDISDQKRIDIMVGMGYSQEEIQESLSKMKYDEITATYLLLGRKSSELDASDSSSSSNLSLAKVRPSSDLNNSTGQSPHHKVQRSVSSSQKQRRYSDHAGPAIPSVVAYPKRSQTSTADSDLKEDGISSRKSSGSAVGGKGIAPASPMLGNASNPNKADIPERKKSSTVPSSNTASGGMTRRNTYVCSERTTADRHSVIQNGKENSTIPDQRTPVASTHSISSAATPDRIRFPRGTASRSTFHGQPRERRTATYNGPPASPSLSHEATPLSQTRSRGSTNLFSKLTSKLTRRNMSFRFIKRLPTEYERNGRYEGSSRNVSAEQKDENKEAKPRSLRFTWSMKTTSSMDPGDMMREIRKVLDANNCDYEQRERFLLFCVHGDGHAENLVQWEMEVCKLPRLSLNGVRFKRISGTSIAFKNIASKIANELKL
Protocol: as §1

JNK3 = JNK3 (Homo sapiens, UniProt P53779); experiment: as above
Sequence of JNK3 (P53779 whole entry): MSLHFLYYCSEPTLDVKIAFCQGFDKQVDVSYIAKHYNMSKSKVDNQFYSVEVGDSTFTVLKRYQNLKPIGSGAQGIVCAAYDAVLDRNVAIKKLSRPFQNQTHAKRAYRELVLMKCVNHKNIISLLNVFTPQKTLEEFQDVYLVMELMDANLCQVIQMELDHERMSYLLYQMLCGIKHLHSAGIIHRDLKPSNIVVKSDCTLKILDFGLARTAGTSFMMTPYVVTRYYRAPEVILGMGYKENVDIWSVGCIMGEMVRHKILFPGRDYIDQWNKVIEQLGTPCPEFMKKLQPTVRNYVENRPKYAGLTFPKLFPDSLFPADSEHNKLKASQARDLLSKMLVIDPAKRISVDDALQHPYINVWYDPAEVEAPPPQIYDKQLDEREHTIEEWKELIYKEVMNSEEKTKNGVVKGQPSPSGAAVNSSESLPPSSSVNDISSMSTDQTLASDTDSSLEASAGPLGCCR
Protocol: as §1

HIPK2 = HIPK2 (Homo sapiens, UniProt Q9H2X6); experiment: as above
Protocol: as §1

MARK4 = MARK4 (Homo sapiens, UniProt Q96L34); experiment: as above
Protocol: as §1

Aurora A = Aurora A (Homo sapiens, UniProt O14965); experiment: as above
Protocol: as §1

GSK3β = GSK3β (Homo sapiens, UniProt P49841); experiment: as above
Protocol: as §1

BRSK2 = BRSK2 (Homo sapiens, UniProt Q8IWQ3); experiment: as above
Protocol: as §1

CDK2-Cyclin A = CDK2-Cyclin A (Homo sapiens, UniProt P24941); experiment: as above
Protocol: as §1

MINK1 = MINK1 (Homo sapiens, UniProt Q8N4C8); experiment: as above
Protocol: as §1

IGF-1R = IGF-1R (Homo sapiens, UniProt P08069); experiment: as above
Sequence of IGF-1R (P08069 31-1367): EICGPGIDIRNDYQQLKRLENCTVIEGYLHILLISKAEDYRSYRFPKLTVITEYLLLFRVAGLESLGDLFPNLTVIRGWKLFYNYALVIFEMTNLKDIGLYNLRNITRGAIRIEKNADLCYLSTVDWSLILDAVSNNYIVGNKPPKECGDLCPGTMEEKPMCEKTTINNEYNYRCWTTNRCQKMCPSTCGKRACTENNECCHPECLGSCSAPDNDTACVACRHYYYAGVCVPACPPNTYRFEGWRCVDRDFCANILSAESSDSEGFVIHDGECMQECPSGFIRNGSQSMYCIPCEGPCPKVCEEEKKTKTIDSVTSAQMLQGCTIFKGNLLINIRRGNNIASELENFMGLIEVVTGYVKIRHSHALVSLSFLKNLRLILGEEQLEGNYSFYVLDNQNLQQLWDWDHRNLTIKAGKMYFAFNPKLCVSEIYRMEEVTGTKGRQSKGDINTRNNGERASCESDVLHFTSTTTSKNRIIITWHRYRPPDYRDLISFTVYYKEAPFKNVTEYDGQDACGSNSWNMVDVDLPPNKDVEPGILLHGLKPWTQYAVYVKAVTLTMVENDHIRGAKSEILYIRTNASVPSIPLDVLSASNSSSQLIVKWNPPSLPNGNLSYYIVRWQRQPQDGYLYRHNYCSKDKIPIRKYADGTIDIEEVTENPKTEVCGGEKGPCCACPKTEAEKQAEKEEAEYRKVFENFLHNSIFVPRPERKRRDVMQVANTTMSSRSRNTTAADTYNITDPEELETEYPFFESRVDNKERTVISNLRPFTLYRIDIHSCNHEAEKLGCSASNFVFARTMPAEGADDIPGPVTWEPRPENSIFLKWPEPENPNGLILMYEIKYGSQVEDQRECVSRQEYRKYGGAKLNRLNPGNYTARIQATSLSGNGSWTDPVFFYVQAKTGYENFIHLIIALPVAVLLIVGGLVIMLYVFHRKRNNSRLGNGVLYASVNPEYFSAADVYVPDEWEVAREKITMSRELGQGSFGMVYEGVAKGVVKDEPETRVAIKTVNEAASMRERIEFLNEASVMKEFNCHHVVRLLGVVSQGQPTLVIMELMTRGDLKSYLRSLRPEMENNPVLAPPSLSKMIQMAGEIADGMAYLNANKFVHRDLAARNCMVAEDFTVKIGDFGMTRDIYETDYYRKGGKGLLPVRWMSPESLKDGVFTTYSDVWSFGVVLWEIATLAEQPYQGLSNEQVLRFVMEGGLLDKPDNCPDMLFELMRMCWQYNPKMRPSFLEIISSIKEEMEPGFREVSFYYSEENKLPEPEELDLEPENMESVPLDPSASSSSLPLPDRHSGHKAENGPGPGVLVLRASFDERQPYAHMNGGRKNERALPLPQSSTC
Protocol: as §1

HIPK1 = HIPK1 (Homo sapiens, UniProt Q86Z02); experiment: as above
Protocol: as §1

GCK = GCK (Homo sapiens, UniProt Q12851); experiment: as above
Protocol: as §1

Nc1ccc2c(NC3CC3)nc(-c3ccccc3)nc2c1 [1b, N^4-Cyclopropyl-2-phenyl-4,7-quinazolinediamine]
inhibition of enzymatic activity across kinase panel [1]: does not inhibit enzymatic activity of any of the tested kinases | remaining activity at 10 µM (BRSK1): 102% | remaining activity at 10 µM (PRK2): 103% | remaining activity at 10 µM (RSK1): 97% | remaining activity at 10 µM (MAPKAP-K2): 98% | remaining activity at 10 µM (NEK2α): 119% | remaining activity at 10 µM (p38α MAPK): 88% | remaining activity at 10 µM (S6K1): 96% | remaining activity at 10 µM (MST2): 87% | remaining activity at 10 µM (ERK8): 91% | remaining activity at 10 µM (HIPK3): 115% | remaining activity at 10 µM (EF2K): 102% | remaining activity at 10 µM (PAK4): 80% | remaining activity at 10 µM (MNK1): 91% | remaining activity at 10 µM (JNK1): 94% | remaining activity at 10 µM (MARK3): 99% | remaining activity at 10 µM (JNK3): 88% | remaining activity at 10 µM (HIPK2): 101% | remaining activity at 10 µM (MARK4): 93% | remaining activity at 10 µM (Aurora A): 104% | remaining activity at 10 µM (GSK3β): 80% | remaining activity at 10 µM (BRSK2): 92% | remaining activity at 10 µM (CDK2-Cyclin A): 94% | remaining activity at 10 µM (MINK1): 69% | remaining activity at 10 µM (IGF-1R): 81% | remaining activity at 10 µM (HIPK1): 87% | remaining activity at 10 µM (GCK): 91%
